Data: ChEMBL document CHEMBL1201862, “PubChem BioAssay data set” (2004)
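Assay format: 96-well plates, 48-hour exposure. GI50: concentration for 50% inhibition of growth.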 Active and inactive are the calls of the source. Rule as the data show it: active = GI50 up to about 1.1 µM and inactive = higher.

How the values were obtained:
Test in all cases: NCI tumour cell line growth inhibition, 48 h
ACHN = tested on: ACHN
SF-268 = tested on: SF-268
BT-549 = tested on: BT-549
Malme-3M = tested on: Malme-3M
HT-29 = tested on: HT-29
UO-31 = tested on: UO-31
TK-10 = tested on: TK-10
SR = tested on: SR
OVCAR-3 = tested on: OVCAR-3
A498 = tested on: A498
MDA-N = tested on: MDA-N
HCT-15 = tested on: HCT-15
OVCAR-4 = tested on: OVCAR-4
HCT-116 = tested on: HCT-116
NCI-H522 = tested on: NCI-H522
RPMI-8226 = tested on: RPMI-8226
KM12 = tested on: KM12
DU-145 = tested on: DU-145
SK-MEL-2 = tested on: SK-MEL-2
HOP-92 = tested on: HOP-92
MCF7 = tested on: MCF7
CAKI-1 = tested on: CAKI-1
CCRF-CEM = tested on: CCRF-CEM
IGROV-1 = tested on: IGROV-1
PC-3 = tested on: PC-3
A549 = tested on: A549
MOLT-4 = tested on: MOLT-4
K562 = tested on: K562
UACC-62 = tested on: UACC-62
OVCAR-5 = tested on: OVCAR-5
MDA-MB-435 = tested on: MDA-MB-435
HOP-62 = tested on: HOP-62
786-0 = tested on: 786-0
HL-60 = tested on: HL-60
SF-539 = tested on: SF-539
NCI-H460 = tested on: NCI-H460
NCI-H23 = tested on: NCI-H23
T47D = tested on: T47D
SNB-19 = tested on: SNB-19
SK-MEL-28 = tested on: SK-MEL-28
LOX IMVI = tested on: LOX IMVI
SK-MEL-5 = tested on: SK-MEL-5
Hs-578T = tested on: Hs-578T
COLO 205 = tested on: COLO 205
EKVX = tested on: EKVX
SNB-75 = tested on: SNB-75
SW-620 = tested on: SW-620
M14 = tested on: M14
RXF 393 = tested on: RXF 393
OVCAR-8 = tested on: OVCAR-8
SN12C = tested on: SN12C
UACC-257 = tested on: UACC-257
HCC 2998 = tested on: HCC 2998
MDA-MB-231 = tested on: MDA-MB-231
SF-295 = tested on: SF-295
NCI/ADR-RES = tested on: NCI/ADR-RES
U-251 = tested on: U-251
SK-OV-3 = tested on: SK-OV-3
NCI-H226 = tested on: NCI-H226

`CN1CCCN2CCN(C)CCN(CC1)CC2` was tested, and the GI50 (ACHN) was > 100 µM (inactive), the GI50 (SF-268) was > 100 µM (inactive) and the GI50 (BT-549) was > 100 µM (inactive). The GI50 (Malme-3M) was > 100 µM (inactive), the GI50 (HT-29) was > 100 µM (inactive) and the GI50 (UO-31) was > 100 µM (inactive). For the same compound, the GI50 (TK-10) was > 100 µM (inactive), the GI50 (SR) was > 100 µM (inactive) and the GI50 (OVCAR-3) was > 100 µM (inactive). The GI50 (A498) was > 100 µM (inactive), the GI50 (MDA-N) was > 100 µM (inactive) and the GI50 (HCT-15) was over 100 µM. For the same compound, the GI50 (OVCAR-4) was > 100 µM (inactive), the GI50 (HCT-116) was > 100 µM (inactive) and the GI50 (NCI-H522) was > 100 µM (inactive). For the same compound, the GI50 (RPMI-8226) was > 100 µM (inactive), the GI50 (KM12) was > 100 µM (inactive) and the GI50 (DU-145) was > 100 µM (inactive). The GI50 (SK-MEL-2) was > 100 µM (inactive), the GI50 (HOP-92) was > 100 µM (inactive) and the GI50 (MCF7) was > 100 µM (inactive). The GI50 (CAKI-1) was > 100 µM (inactive), the GI50 (CCRF-CEM) was > 100 µM (inactive) and the GI50 (IGROV-1) was > 100 µM (inactive). The GI50 (PC-3) was > 100 µM (inactive), the GI50 (A549) was > 100 µM (inactive) and the GI50 (MOLT-4) was > 100 µM (inactive). For the same compound, the GI50 (K562) was > 100 µM (inactive), the GI50 (UACC-62) was > 100 µM (inactive) and the GI50 (OVCAR-5) was > 100 µM (inactive). The GI50 (MDA-MB-435) was > 100 µM (inactive), the GI50 (HOP-62) was > 100 µM (inactive) and the GI50 (786-0) was > 100 µM (inactive). For the same compound, the GI50 (HL-60) was > 100 µM (inactive), the GI50 (SF-539) was 0.0366 µM (active) and the GI50 (NCI-H460) was > 100 µM (inactive). The GI50 (NCI-H23) was > 100 µM (inactive), the GI50 (T47D) was > 100 µM (inactive) and the GI50 (SNB-19) was > 100 µM (inactive). The GI50 (SK-MEL-28) was > 100 µM (inactive), the GI50 (LOX IMVI) was > 100 µM (inactive) and the GI50 (SK-MEL-5) was > 100 µM (inactive). The GI50 (Hs-578T) was > 100 µM (inactive), the GI50 (COLO 205) was > 100 µM (inactive) and the GI50 (EKVX) was > 100 µM (inactive). The GI50 (SNB-75) was > 100 µM (inactive), the GI50 (SW-620) was > 100 µM (inactive) and the GI50 (M14) was > 100 µM (inactive). The GI50 (RXF 393) was > 100 µM (inactive), the GI50 (OVCAR-8) was > 100 µM (inactive) and the GI50 (SN12C) was > 100 µM (inactive). For the same compound, the GI50 (UACC-257) was > 100 µM (inactive), the GI50 (HCC 2998) was > 100 µM (inactive) and the GI50 (MDA-MB-231) was > 100 µM (inactive). The GI50 (SF-295) was > 100 µM (inactive), the GI50 (NCI/ADR-RES) was > 100 µM (inactive) and the GI50 (U-251) was > 100 µM (inactive). For the same compound, the GI50 (SK-OV-3) was > 100 µM (inactive).

With `CCOC(=O)c1nc2ccccc2nc1NCc1ccc(OC)c(OC)c1` the GI50 (ACHN) was > 100 µM (inactive), the GI50 (SF-268) was > 100 µM (inactive) and the GI50 (BT-549) was > 100 µM (inactive). For the same compound, the GI50 (Malme-3M) was > 100 µM (inactive), the GI50 (HT-29) was > 100 µM (inactive) and the GI50 (UO-31) was > 100 µM (inactive). The GI50 (TK-10) was 82.4 µM (inactive), the GI50 (SR) was > 100 µM (inactive) and the GI50 (OVCAR-3) was > 100 µM (inactive). For the same compound, the GI50 (A498) was > 100 µM (inactive), the GI50 (MDA-N) was > 100 µM (inactive) and the GI50 (HCT-15) was over 100 µM. The GI50 (OVCAR-4) was > 100 µM (inactive), the GI50 (HCT-116) was > 100 µM (inactive) and the GI50 (NCI-H522) was > 100 µM (inactive). For the same compound, the GI50 (RPMI-8226) was > 100 µM (inactive), the GI50 (KM12) was > 100 µM (inactive) and the GI50 (DU-145) was > 100 µM (inactive). For the same compound, the GI50 (HOP-92) was > 100 µM (inactive), the GI50 (MCF7) was > 100 µM (inactive) and the GI50 (CAKI-1) was > 100 µM (inactive). For the same compound, the GI50 (CCRF-CEM) was > 100 µM (inactive), the GI50 (IGROV-1) was > 100 µM (inactive) and the GI50 (PC-3) was > 100 µM (inactive). For the same compound, the GI50 (A549) was > 100 µM (inactive), the GI50 (MOLT-4) was > 100 µM (inactive) and the GI50 (K562) was > 100 µM (inactive). The GI50 (UACC-62) was > 100 µM (inactive), the GI50 (OVCAR-5) was > 100 µM (inactive) and the GI50 (MDA-MB-435) was > 100 µM (inactive). The GI50 (HOP-62) was > 100 µM (inactive), the GI50 (786-0) was > 100 µM (inactive) and the GI50 (HL-60) was > 100 µM (inactive). For the same compound, the GI50 (SF-539) was > 100 µM (inactive), the GI50 (NCI-H460) was > 100 µM (inactive) and the GI50 (NCI-H23) was > 100 µM (inactive). The GI50 (T47D) was > 100 µM (inactive), the GI50 (SK-MEL-28) was > 100 µM (inactive) and the GI50 (LOX IMVI) was > 100 µM (inactive). The GI50 (NCI-H226) was > 100 µM (inactive), the GI50 (SK-MEL-5) was > 100 µM (inactive) and the GI50 (Hs-578T) was 45.9 µM (inactive). The GI50 (COLO 205) was > 100 µM (inactive), the GI50 (EKVX) was > 100 µM (inactive) and the GI50 (SNB-75) was > 100 µM (inactive). For the same compound, the GI50 (SW-620) was > 100 µM (inactive), the GI50 (RXF 393) was 27.8 µM (inactive) and the GI50 (OVCAR-8) was > 100 µM (inactive). For the same compound, the GI50 (SN12C) was > 100 µM (inactive), the GI50 (UACC-257) was > 100 µM (inactive) and the GI50 (HCC 2998) was > 100 µM (inactive). The GI50 (MDA-MB-231) was > 100 µM (inactive), the GI50 (SF-295) was > 100 µM (inactive) and the GI50 (NCI/ADR-RES) was > 100 µM (inactive). For the same compound, the GI50 (U-251) was > 100 µM (inactive) and the GI50 (SK-OV-3) was > 100 µM (inactive).
